System: TEAD-dependent transcription
Test: Inhibitor activity against TEAD-dependent transcription in a cell-based reporter assay (MSTO-211H+12XGTIIC luciferase)
Conditions: Homo sapiens; MSTO-211H+12XGTIIC cells, 24 hours incubation, luciferase luminescence normalized to cell viability fluorescence, geometric mean; read-out: MSTO-211H GMean IC50 (uM) Cell Assay Reporter Cell Variant: TEAD
Source text: Determine Inhibitor Activity Against TEAD-Dependent Transcription in a Cell-Based Reporter Assay
The human mesothelioma cell line MSTO-211H was stably transfected with a pGL4.21 plasmid containing a synthetic promoter with 12 copies of the GTIIC TEAD response element that drives the expression of a luciferase reporter gene^1 using Lipofectamine transfection reagent (Thermo Fisher). Transfected cells were selected using puromycin and single cell clones expressing this construct (referred to as MSTO-211H+12XGTIIC) were generated by limiting dilution. MSTO-211H cells was characterized by genetic alterations in key components of the Hippo pathway^2, resulting in up-regulation of YAP/TEAD-mediated transcription. […] To evaluate TEAD inhibitors, the MSTO-211H+12XGTIIC cell line was seeded in a 96-well plate in 50 μL of culture media at 1×10^4 cells per well and incubated at 37° C. overnight. Serial dilutions of compounds (in total volume of 50 μL of culture media) were added to the cells and incubated at 37° C. for 24 hours. Each plate included cells treated with DMSO as high controls and cells treated with 20 μM of the reference compound K-975 (a known TEAD inhibitor)^3 as low controls. Cell viability was assayed by the addition of 25 μL of CellTiter-Fluor reagent (Promega) followed by a 30-minute incubation at 37° C. and quantification of the fluorescence signal (Ex400/Em505). Subsequently, luciferase expression was assayed by the addition of 25 μL of ONE-Glo reagent (Promega) followed by a 10-minute incubation at room temperature and quantification of the luminescence signal. The luminescence signal was normalized to the fluorescence signal to correct for any loss in cell viability over the 24-hour compound incubation period. The percentage of inhibition of normalized luminescence signal, indicative of compound-mediated inhibition of TEAD-dependent transcription, at individual compound concentrations relative to high and low controls was calculated. The data were analyzed by using nonlinear regression to generate IC50 values for individual compounds.

`C=CC(=O)N1CCc2ccc(Oc3cccc(C4CC4)c3)cc2C1` [P-0046, 1-(7-(3-cyclopropylphenoxy)-3,4-dihydroisoquinolin-2(1H)-yl)prop-2-en-1-one] was tested, and the IC50 was 0.001 to 0.5 µM.
`C=CC(=O)N1CCc2ccc(NCC3CCC(F)(F)CC3)cc2C1` [P-0100, 1-(7-(((4,4-difluorocyclohexyl)methyl)ami-no)-3,4-dihydroisoquinolin-2(1H)-yl)prop-2-en-1-one] was tested, and the IC50 was 0.001 to 0.5 µM.
Work on `C=CC(=O)N1CCc2ccc(N(C)c3ccccc3)cc2C1` [P-0026, 1-(7-(methyl(phenyl)amino)-3,4-dihydroisoquinolin-2(1H)-yl)prop-2-en-1-one] yielded an IC50 of 0.001 to 0.5 µM.
Work on `C=CC(=O)N1CCc2ccc(OCc3ccc(F)cc3)cc2C1` [P-0001, 1-(7-((4-fluorobenzyl)oxy)-3,4-dihydroisoquinolin-2(1H)-yl)prop-2-en-1-one] yielded an IC50 of 0.001 to 0.5 µM.
With `C=CC(=O)N1CCc2ccc(Oc3cccc(Cl)c3)cc2C1` [P-0014, 1-(7-(3-chlorophenoxy)-3,4-dihydroisoquinolin-2(1H)-yl)prop-2-en-1-one] the IC50 was 0.001 to 0.5 µM.
`C=CC(=O)N1CCc2ccc(OCC3CC4C(C3)C4(F)F)cc2C1` (stereo not drawn) [P-0111, 1-(7-((6,6-difluorobicyclo[3.1.0]hexan-3-yl)methoxy)-3,4-dihydroisoquinolin-2(1H)-yl)prop-2-en-1-one] gave an IC50 of 0.001 to 0.5 µM.
Work on `C=CC(=O)N1CCc2cc(F)c(Oc3cccc(F)c3)cc2C1` [P-0031, 1-(6-fluoro-7-(3-fluorophenoxy)-3,4-dihydroisoquinolin-2(1H)-yl)prop-2-en-1-one] yielded an IC50 of 0.001 to 0.5 µM.
For `C=CC(=O)N1CCc2ccc(OC3CC(F)(F)C3)cc2C1` [P-0020, 1-(7-(3,3-difluorocyclobutoxy)-3,4-dihydroisoquinolin-2(1H)-yl)prop-2-en-1-one], the IC50 was 0.001 to 0.5 µM.
Compound `C=CC(=O)N1CCc2ccc(OC3CCOCC3)cc2C1` [P-0009, 1-(7-((tetrahydro-2H-pyran-4-yl)oxy)-3,4-dihydroisoquinolin-2(1H)-yl)prop-2-en-1-one] has an IC50 of 0.001 to 0.5 µM.
In the case of `CN(C)C/C=C/C(=O)N1CCc2ccc(Oc3ccc(C(F)(F)F)cc3)cc2C1` [P-0116, (E)-4-(dimethylamino)-1-(7-(4-(trifluoromethyl)phenoxy)-3,4-dihydroisoquinolin-2(1H)-yl)but-2-en-1-one], the IC50 is reported as 0.5 to 20 µM.
For `C=CC(=O)N1CCc2ccc(NCc3cccc(F)c3)cc2C1` [P-0090, 1-(7-((3-fluorobenzyl)amino)-3,4-dihydroisoquinolin-2(1H)-yl)prop-2-en-1-one], the IC50 was 0.001 to 0.5 µM.
`C=CC(=O)N1CCc2ccc(Cc3ccc(F)cc3)cc2C1` [P-0035, 1-(7-(4-fluorobenzyl)-3,4-dihydroisoquinolin-2(1H)-yl)prop-2-en-1-one] showed an IC50 of 0.001 to 0.5 µM.
Work on `C=CC(=O)N1CCc2ccc(OC3CC4(CCC4)C3)cc2C1` [P-0074, 1-(7-(spiro[3.3]heptan-2-yloxy)-3,4-dihydroisoquinolin-2(1H)-yl)prop-2-en-1-one] yielded an IC50 of 0.001 to 0.5 µM.
For `C=CC(=O)N1CCc2ccc(OC3CCC(C)(C)CC3)cc2C1` [P-0082, 1-(7-((4,4-dimethylcyclohexyl)oxy)-3,4-dihydroisoquinolin-2(1H)-yl)prop-2-en-1-one], the IC50 was 0.001 to 0.5 µM.
Compound `C=CC(=O)N1CCc2ccc(Oc3ccc(C4(C)CC4)cc3)cc2C1` [P-0109, 1-(7-(4-(1-methylcyclopropyl)phenoxy)-3,4-dihydroisoquinolin-2(1H)-yl)prop-2-en-1-one] has an IC50 of 0.001 to 0.5 µM.
`C=CC(=O)N1CCc2ccc(Oc3ccc(C4CC4)c(F)c3)cc2C1` [P-0050, 1-(7-(4-cyclopropyl-3-fluorophenoxy)-3,4-dihydroisoquinolin-2(1H)-yl)prop-2-en-1-one] showed an IC50 of 0.001 to 0.5 µM.
With `C=CC(=O)N1CCc2ccc(OCc3ccccc3F)cc2C1` [P-0096, 1-(7-((2-fluorobenzyl)oxy)-3,4-dihydroisoquinolin-2(1H)-yl)prop-2-en-1-one] the IC50 was over 20 µM.
Compound `C=CC(=O)N1CCc2ccc(OC3CCC4(CCCC4)CC3)cc2C1` [P-0064, 1-(7-(spiro[4.5]decan-8-yloxy)-3,4-dihydroisoquinolin-2(1H)-yl)prop-2-en-1-one] has an IC50 of 0.5 to 20 µM.
`C=CC(=O)N1CCc2ccc(NC3CCC(F)(F)CC3)cc2C1` [P-0029, 1-(7-((4,4-difluorocyclohexyl)amino)-3,4-dihydroisoquinolin-2(1H)-yl)prop-2-en-1-one] was tested, and the IC50 was 0.001 to 0.5 µM.
Work on `C=CC(=O)N1CCc2ccc(OC3CCN(S(C)(=O)=O)CC3)cc2C1` [P-0028, 1-(7-((1-(methylsulfonyl)piperidin-4-yl)oxy)-3,4-dihydroisoquinolin-2(1H)-yl)prop-2-en-1-one] yielded an IC50 of 0.5 to 20 µM.
Compound `C=CC(=O)N1CCc2ccc(Oc3cc(F)ccc3F)cc2C1` [P-0058, 1-(7-(2,5-difluorophenoxy)-3,4-dihydroisoquinolin-2(1H)-yl)prop-2-en-1-one] has an IC50 of 0.001 to 0.5 µM.
Compound `C=CC(=O)N1CCc2ccc(Nc3cccc(F)c3)cc2C1` [P-0004, 1-(7-((3-fluorophenyl)amino)-3,4-dihydroisoquinolin-2(1H)-yl)prop-2-en-1-one] has an IC50 of 0.001 to 0.5 µM.
In the case of `O=C(/C=C/Cn1ccnc1)N1CCc2ccc(Oc3ccc(C(F)(F)F)cc3)cc2C1` [P-0119, (E)-4-(1H-imidazol-1-yl)-1-(7-(4-(trifluoromethyl)phenoxy)-3,4-dihydroisoquinolin-2(1H)-yl)but-2-en-1-one], the IC50 is reported as 0.001 to 0.5 µM.
Compound `C=C(C)C(=O)N1CCc2ccc(Oc3ccc(C(F)(F)F)cc3)cc2C1` [P-0122, 2-methyl-1-(7-(4-(trifluoromethyl)phenoxy)-3,4-dihydroisoquinolin-2(1H)-yl)prop-2-en-1-one] has an IC50 of 0.5 to 20 µM.
Compound `C=CC(=O)N1CCc2ccc(Nc3ccccc3F)cc2C1` [P-0022, 1-(7-((2-fluorophenyl)amino)-3,4-dihydroisoquinolin-2(1H)-yl)prop-2-en-1-one] has an IC50 of 0.001 to 0.5 µM.
`C=CC(=O)N1CCc2ccc(OC3CCCCCC3)cc2C1` [P-0070, 1-(7-(cycloheptyloxy)-3,4-dihydroisoquinolin-2(1H)-yl)prop-2-en-1-one] showed an IC50 of 0.001 to 0.5 µM.
`C=CC(=O)N1CCc2ccc(NC3CCCC3)cc2C1` [P-0066, 1-(7-(cyclopentylamino)-3,4-dihydroisoquinolin-2(1H)-yl)prop-2-en-1-one] was tested, and the IC50 was 0.001 to 0.5 µM.
`C=CC(=O)N1CCc2c(F)cc(OC3CCC(F)(F)CC3)cc2C1` [P-0095, 1-(7-((4,4-difluorocyclohexyl)oxy)-5-fluoro-3,4-dihydroisoquinolin-2(1H)-yl)prop-2-en-1-one] showed an IC50 of 0.001 to 0.5 µM.
Work on `C=CC(=O)N1CCc2ccc(Oc3ccc(C(F)(F)F)cc3)cc2C1=O` [P-0128, 2-acryloyl-7-(4-(trifluoromethyl)phenoxy)-3,4-dihydroisoquinolin-1(2H)-one] yielded an IC50 of 0.001 to 0.5 µM.
`C=CC(=O)N1CCc2ccc(OCc3ccc(F)c(F)c3)cc2C1` [P-0129, 1-(7-((3,4-difluorobenzyl)oxy)-3,4-dihydroisoquinolin-2(1H)-yl)prop-2-en-1-one] was tested, and the IC50 was over 20 µM.
With `O=C(/C=C/CN1CCC1)N1CCc2ccc(Oc3ccc(C(F)(F)F)cc3)cc2C1` [P-0117, (E)-4-(azetidin-1-yl)-1-(7-(4-(trifluoromethyl)phenoxy)-3,4-dihydroisoquinolin-2(1H)-yl)but-2-en-1-one] the IC50 was 0.5 to 20 µM.
`C=CC(=O)N1CCc2ccc(OC3CCC(F)(F)C3)cc2C1` (stereo not drawn) [P-0085, 1-(7-((3,3-difluorocyclopentyl)oxy)-3,4-dihydroisoquinolin-2(1H)-yl)prop-2-en-1-one] showed an IC50 of 0.001 to 0.5 µM.
With `C=CC(=O)N1CCc2ccc(Oc3ccc(Cl)cc3)cc2C1` [P-0015, 1-(7-(4-chlorophenoxy)-3,4-dihydroisoquinolin-2(1H)-yl)prop-2-en-1-one] the IC50 was 0.001 to 0.5 µM.
